Assay results reported in PMC10838382 (Cancer Drug Resistance, 2024).
Like-named read-outs stand apart in the source and are kept apart here. One block for each compound: values may come before it.

Assays:
[1] = system: DU-145; assay: 3D clonogenic assay (soft agar); settings: for IC50: Homo sapiens, DU-145, read-out: Cabazitaxel IC50, DU-145, 3D clonogenic assay
[2] = system: 22Rv1; assay: 3D clonogenic assay (soft agar); settings: for IC50: Homo sapiens, 22Rv1, read-out: Cabazitaxel IC50, 22Rv1, 3D clonogenic assay
[3] = system: 22Rv1DOC8; assay: 3D clonogenic assay (soft agar); format: cell-based, human; settings: 3D clonogenic assay; for IC50: 22Rv1DOC8, read-out: Cabazitaxel IC50; for Relative resistance: 22Rv1DOC8 vs 22Rv1
[4] = system: DU-145DOC10; assay: 3D clonogenic assay (soft agar); format: cell-based, human; settings: for Relative resistance: DU-145DOC10 vs DU-145; for IC50: Homo sapiens, DU-145DOC10
[5] = system: GXA NUGC-4; assay: cells; settings: Homo sapiens, NUGC-4, read-out: Relative ritonavir IC50
[6] = system: OVXF EFO-27; assay: 2D proliferation assay (CellTiter-Blue); settings: Homo sapiens, EFO-27, read-out: Relative ritonavir IC50
[7] = system: DU-145 cells; settings: NCI60 panel, read-out: IC50 value, anti-proliferative effect; cited from earlier work
[8] = system: PRXF 22Rv1; assay: 2D proliferation assay (CellTiter-Blue); format: cell-based; settings: Homo sapiens, read-out: Relative ritonavir IC50; PRXF 22Rv1; 2D proliferation assay
[9] = system: LXFA 737; assay: 2D proliferation assay (CellTiter-Blue); settings: read-out: Relative ritonavir IC50
[10] = system: MAXFTN CAL-51; assay: cells; settings: Homo sapiens, CAL-51, read-out: Relative ritonavir IC50
[11] = system: OVXF 899; assay: cells; settings: read-out: Relative ritonavir IC50
[12] = system: PC-3M; assay: 2D proliferation assay (CellTiter-Blue); settings: Homo sapiens, read-out: Relative ritonavir IC50
[13] = system: PC-3; assay: 2D proliferation assay (CellTiter-Blue); format: cell-based; settings: Homo sapiens, read-out: Relative ritonavir IC50, PC-3
[14] = system: MAXFTN MCF 10A; assay: cells; settings: Homo sapiens, read-out: Relative ritonavir IC50
[15] = system: DU-145; settings: read-out: IC50, single agent ritonavir; DU-145 proliferation assay; cited from earlier work
[16] = system: MAXFTN MX1; assay: 2D proliferation assay (CellTiter-Blue); settings: read-out: Relative ritonavir IC50
[17] = system: MAXFLB MCF7; assay: cells; settings: Homo sapiens, MCF7, read-out: Relative ritonavir IC50
[18] = system: PRXF DU-145; assay: 2D proliferation assay (CellTiter-Blue); format: cell-based, human; settings: 2D proliferation assay
[19] = system: GXA 3011; assay: cells; settings: read-out: Relative ritonavir IC50
[20] = system: 15 tumor cell lines; assay: 2D proliferation assay (CellTiter-Blue), panel of 15 tumor cell lines; settings: at the concentration ranges tested; 2D proliferation assay
[21] = system: LXFA EKVX; assay: cells; settings: Homo sapiens, read-out: Relative ritonavir IC50
[22] = system: OVXF NCI-ADR-RES; assay: cells; settings: Homo sapiens, read-out: Relative ritonavir IC50

IC50 ([1]; + ritonavir 10 µM): 0.0003 µM
IC50 ([1]; without ritonavir): 0.0006 µM
IC50 ([2]; + ritonavir 10 µM): 0.0007 µM
IC50 ([2]; + ritonavir 32 µM): 0.0007 µM
IC50 ([2]; without ritonavir): 0.0007 µM
IC50 ([3]; + ritonavir 32 µM): 0.0007 µM
IC50 ([3]; Homo sapiens, + ritonavir 10 µM): 0.0052 µM
IC50 ([3]; Homo sapiens, + ritonavir 32 µM): 0.0006 µM
IC50 ([3]; Homo sapiens, without ritonavir): 0.0095 µM
IC50 ([4]; 3D clonogenic assay, + ritonavir 10 µM, read-out: Cabazitaxel IC50): 0.0006 µM
IC50 ([4]; 3D clonogenic assay, without ritonavir, read-out: Cabazitaxel IC50): 0.0015 µM
IC50 ([4]; cabazitaxel alone, Figure 7A, read-out: IC 50): 0.00146 µM
SMILES: CO[C@H]1C(=O)[C@]2(C)[C@@H](OC)C[C@H]3OC[C@@]3(OC(C)=O)[C@H]2[C@H](OC(=O)c2ccccc2)[C@]2(O)C[C@H](OC(=O)[C@H](O)[C@@H](NC(=O)OC(C)(C)C)c3ccccc3)C(C)=C1C2(C)C [Cabazitaxel]
Relative resistance ([3]; cabazitaxel + ritonavir 10 µM): 7.4
Relative resistance ([3]; cabazitaxel + ritonavir 32 µM): 1.0
Relative resistance ([3]; cabazitaxel without ritonavir): 13.6
Relative resistance ([4]; cabazitaxel + ritonavir 10 µM, 3D clonogenic assay): 1.0
Relative resistance ([4]; cabazitaxel without ritonavir, 3D clonogenic assay): 2.5

IC50 [5]: 1.27 µM
IC50 [8]: 29.3 µM
IC50 [10]: > 30 µM
IC50 [11]: 25.7 µM
IC50 [12]: 23.3 µM
IC50 [13]: 21.7 µM
IC50 [14]: > 30 µM
IC50 [17]: > 30 µM
IC50 ([18]; Homo sapiens, DU-145, read-out: Relative ritonavir IC50, PRXF DU-145): 16.2 µM
IC50 ([18]; read-out: Relative ritonavir IC50, PRXF DU-145): 16.3 µM
IC50 [19]: > 30 µM
IC50 [21]: > 30 µM
IC50 [22]: > 30 µM
SMILES: CC(C)c1nc(CN(C)C(=O)N[C@H](C(=O)N[C@@H](Cc2ccccc2)C[C@H](O)[C@H](Cc2ccccc2)NC(=O)OCc2cncs2)C(C)C)cs1 [Ritonavir]
IC50 [6]: > 30 µM
IC50 [7]: > 20 µM
IC50 [9]: > 30 µM
IC50 [15]: 3 µM
IC50 [16]: > 22.6 µM
single agent activity [20]: no considerable or only low activity

SMILES: COc1cc2c(cc1OC)CN(CCc1ccc(NC(=O)c3cccc4c(=O)c5cccc(OC)c5[nH]c34)cc1)CC2 [Elacridar]
effect of elacridar alone on parental cells ([1]; DU-145 parental, data not shown): no effect
effect of elacridar alone on parental cells ([2]; 22Rv1 parental, data not shown): no effect
